# Source: patent US10633395B2, “Aryloxazolidinone antibiotic compounds” (Idorsia Pharmaceuticals Ltd., priority 2017, dated 2020)
# Experiments:
# [1] = test system: wild-type E. coli A-1261; assay: MIC against wild-type E. coli A-1261 with or without alkaline phosphatase or esterase (prodrug activation); type: cell-based; details: for MIC for E. coli A-1261 In the presence of an alkaline phosphatase (2 i.U./mL): alkaline phosphatase from bovine intestinal mucosa; for MIC for E. coli A-1261 In the presence of an esterase (10 i.U./mL): esterase from porcine liver; for MIC for E. coli A-1261 In the absence of alkaline phosphatase and esterase: no alkaline phosphatase, no esterase
# Procedure: (§1) Bacterial growth minimal inhibitory concentrations: Minimal inhibitory concentrations (MICs; mg/L) were determined in cation-adjusted Mueller-Hinton Broth by a microdilution method following the description given in “Methods for Dilution Antimicrobial Susceptibility Tests for Bacteria that Grow Aerobically”, Approved standard, 7th ed., Clinical and Laboratory Standards Institute (CLSI) Document M7-A7, Wayne, Pa., USA (2006).
# The compounds of Examples 2 and 3 of the present invention (inv.) were tested against wild-type E. coli A-1261 in the presence of alkaline phosphatase (from bovine intestinal mucosa: Sigma P6774-2KU; Lot: SLBB1168) or esterase (from porcine liver: Sigma E2884-5KU; Lot: 129K7010V), and in the absence of an alkaline phosphatase and esterase. The corresponding antibacterial test results are given in Table 2 hereafter (MICs in mg/L).
# [2] = test system: Staphylococcus aureus A798; assay: Bacterial growth minimal inhibitory concentration (microdilution), S. aureus A798; type: cell-based; details: multiply resistant (quinolone-resistant) strain, cation-adjusted Mueller-Hinton Broth
# Procedure: as §1
# (§2) The compound of Example 1 according to the present invention (inv.) and reference compounds 4 (ref.) to 9 (ref.) were tested against several Gram-positive and Gram-negative bacteria. Staphylococcus aureus A798 is a multiply resistant strain (in particular quinolone-resistant), Klebsiella pneumoniae A-651 is a multiply resistant strain (in particular quinolone-resistant), while E. coli ATCC25922 and P. aeruginosa ATCC27853 are quinolone-sensitive strains. The corresponding antibacterial test results are given in Table 1 hereafter (MICs in mg/L).
# [3] = test system: E. coli ATCC25922; assay: Bacterial growth minimal inhibitory concentration (microdilution), E. coli ATCC25922; type: cell-based; details: Escherichia coli, quinolone-sensitive strain, cation-adjusted Mueller-Hinton Broth
# Procedure: as §1, §2
# [4] = test system: Klebsiella pneumoniae A-651; assay: Bacterial growth minimal inhibitory concentration (microdilution), K. pneumoniae A-651; type: cell-based; details: A651, multiply resistant (quinolone-resistant) strain, cation-adjusted Mueller-Hinton Broth
# Procedure: as §1, §2
# [5] = test system: P. aeruginosa ATCC27853; assay: Bacterial growth minimal inhibitory concentration (microdilution), P. aeruginosa ATCC27853; type: cell-based; details: Pseudomonas aeruginosa, quinolone-sensitive strain, cation-adjusted Mueller-Hinton Broth, read-out: MIC for P. aeruginosa AT0027853
# Procedure: as §1, §2
# [6] = test system: CHO cells; assay: Genetic toxicology: in vitro micronuclei formation in CHO cells; type: cell-based, Chinese hamster; details: 24 h treatment, ratio versus untreated cells
# Procedure: Genetic toxicology testing of compounds to assess their ability to cause DNA damage was done in vitro in mammalian cell assays (CHO cells). The formation of micronuclei, small DNA-staining particles outside of the nucleus, was investigated in mononucleated and binucleated cells treated with increasing concentrations of a test compound for 24 h. DNA was stained with Hoechst 33342 (Mutat Res. 630:1-13, 2007), read with a high-content screening microscope (Opera Phenix, Perkin Elmer) and scored with an optimized algorithm using Harmony. Micronucleii associated with valid cells were enumerated and induction of micronuclei formation tabulated as ratio versus untreated cells if the fraction of valid cells was ≥0.2.
# Genetic toxicity potential of the compound of Example 1 according to the present invention (inv.) and reference compounds (ref.) was assessed and the corresponding test results are given in Table 3 hereafter.
# [7] = test system: CYP3A4, CYP2C9 and CYP2D6 (lowest IC50 of the isoforms measured); assay: Cytochrome P450 inhibition in human liver microsomes; type: in vitro ADME; details: lowest of isoforms 3A4, 2C9 and 2D6, 0-100 μM test compound, read-out: CYP450 lowest IC50 of the isoenzymes measured
# Procedure: Cytochrome P450 inhibition: The objective of this in vitro assay was to assess potential inhibition of the human cytochrome P450 (CYP450) isoforms 3A4, 2C9 and 2D6 using human liver microsomes and isoform-specific marker reactions. […] This may affect plasma levels in vivo and potentially lead to adverse drug reactions or toxicity. Technically, specific marker-substrate of P450 enzymes were incubated with human liver microsomes in the presence/absence of a test compounds. The inhibition effect of the test compound towards the marker reaction was determined in incubations containing 0-100 μM of the test compound. The inhibitory effect was determined by the impact of the different compound concentrations towards the metabolite formation of the marker reaction. Formation of the metabolites was determined by LC-MS analysis. Metabolic stability of the compounds according to the present invention (inv.) and reference compounds (ref.) in human liver microsomes and inhibition of the human cytochrome P450 (CYP450) isoforms 3A4, 2C9 and 2D6 are given in Table 4 hereafter.
# [8] = Metabolic stability: intrinsic clearance in human liver microsomes; type: in vitro ADME; details: 1 μM compound, up to 45 minutes
# Procedure: Metabolic stability: Subcellular liver fractions and primary hepatocytes from different species were used to determine the in vitro intrinsic clearance of a compound in various species. The liver microsomal and hepatocytes in vitro half-life approach can be a suitable approach to measure intrinsic clearance in vitro, which can be scaled up to the in vivo situation and used in the prediction of human clearance (Obach et al., 1997). For this approach, […] were incubated for up to 45 minutes in subcellular liver fractions or 2 h in primary hepatocytes at final compound concentration of 1 μM. Disappearance of parent compound was determined by LC-MS analysis and intrinsic clearance calculated from the slope of compound disappearance thereof.
# Metabolic stability of the compounds according to the present invention (inv.) and reference compounds (ref.) in human liver microsomes and inhibition of the human cytochrome P450 (CYP450) isoforms 3A4, 2C9 and 2D6 are given in Table 4 hereafter.
smiles,measurement,setting,value
O=C1COc2ccc(N3C[C@H](CCCN(C(=O)OCOC(=O)CCc4ccccc4OP(=O)(O)O)[C@@H]4Cn5c(=O)ccc6cccc4c65)OC3=O)nc2N1 [Example 3],MIC for E. coli A-1261 In the presence of an alkaline phosphatase (2 i.U./mL),[1],0.25 µg/mL
same,MIC for E. coli A-1261 In the presence of an esterase (10 i.U./mL),[1],1 µg/mL
same,MIC for E. coli A-1261 In the absence of alkaline phosphatase and esterase,[1],>8 µg/mL
O=C1COc2ccc(N3C[C@H](CCCN(C(=O)OCOP(=O)(O)O)[C@@H]4Cn5c(=O)ccc6cccc4c65)OC3=O)nc2N1 [Example 2],MIC for E. coli A-1261 In the presence of an alkaline phosphatase (2 i.U./mL),[1],0.25 µg/mL
same,MIC for E. coli A-1261 In the presence of an esterase (10 i.U./mL),[1],>8 µg/mL
same,MIC for E. coli A-1261 In the absence of alkaline phosphatase and esterase,[1],>8 µg/mL
"O=C1COc2ccc(N3C[C@H](CCCN[C@@H]4Cn5c(=O)ccc6cccc4c65)OC3=O)nc2N1 [Example 1, (S)-1-{3-[(S)-2-oxo-3-(3-oxo-3,4-dihydro-2H-pyrido[3,2-b][1,4]oxazin-6-yl)-oxazolidin-5-yl]-propylamino}-1,2-dihydro-pyrrolo[3,2,1-ij]quinolin-4-one]",MIC,[2],0.031 µg/mL
same,MIC,[3],0.25 µg/mL
same,MIC,[4],0.5 µg/mL
same,MIC,[5],1 µg/mL
same,Maximal induction of micronuclei formation normalized vs. background,[6],2.5
same,IC50,[7],> 50 µM
same,Intrinsic clearance in human liver microsomes,[8],15 μL/min * mg microsomal protein
